The values that follow come from patent publication US9579337B2, “Use of uridine and deoxyuridine to treat folate-responsive pathologies” (priority 2011, dated 2017).

Data set [1] concerns Shmt1-deficient embryos (NTDs, exencephaly). The data set is described as follows: Neural tube defects (exencephaly) in embryos of Shmt1 dams fed nucleoside-supplemented diets. It counts as in vivo, mouse. Conditions: for Shmt1+/+ embryos with exencephaly: crosses involving Shmt1+/+ dams; for prevention of NTDs by supplementation of the folate-deficient (FD) diet: maternal folate deficiency, 0.2% thymidine or 0.1% 2'-deoxyuridine in diet. An excerpt: NTDs were examined in litters harvested from crosses of 129SvEv-Shmt1 (N=10 and more) mice. Shmt1^+/−, Shm1^+/+, and Shmt1^−/− mice were generated from Shmt1^+/− breeding pairs maintained as a heterozygote breeding colonies. Shmt1^+/+ and Shmt1^−/− female mice were then crossed to Shmt1^+/− male mice for timed mating experiments, as described below.
Mice were maintained on a 12-hour light/dark cycle in a temperature-controlled room. For studies investigating Shmt1 disruption and NTDs, female mice were randomly assigned at weaning to experimental AIN93G diets containing folic acid (C) or AIN93G lacking folic acid (FD) (FIG. 2) and including 0.6% uridine (Rudolph F B & Van Buren C T (1993), which is hereby incorporated by reference in its entirety), 0.2% thymidine (Iwasa et al., “The Well-Balanced Nucleoside-Nucleotide Mixture ‘0G-VI’ for Special Medical Purposes,” Nutrition 13(4):361-364 (1997), which is hereby incorporated by reference in its entirety), or 0.1% 2′-Deoxyuridine supplementation (Dyets, Bethlehem, Pa.). Diets were assigned with these abbreviations: AIN-93G as control (“C”); Folate Deficient (“FD”), C+ supplemented with 0.6% uridine (“C+U”), C+ supplemented with 0.2% thymidine (“C+T”), C+ supplemented with 0.1% 2′-Deoxyuridine (“C+dU”), FD+ supplemented with 0.6% uridine (“FD+U”), FD+ supplemented with 0.2% thymidine (“FD+T”), FD+ supplemented with 0.1% 2′-Deoxyuridine (“FD+dU”).
(§1) For all studies, mouse dams were maintained on diet from weaning throughout the breeding period and for the duration of gestation, until killed. Virgin female mice aged 70-120 days were housed overnight with males. The following morning, females were examined for the presence of a vaginal plug. Nine o'clock a.m. the day of the plug appearance was designated as gestational day 0.5 (E0.5). Pregnant females were sacrificed by cervical dislocation at E11.5 and blood was collected by cardiac puncture. Gravid uteri were removed and all implants and resorption sites were recorded. Embryos were examined for presence of NTDs and measured for crown-rump length. All yolk sacs were collected for subsequent genotyping. Embryos were extracted at E11.5 and rapidly frozen in liquid nitrogen followed by storage at −80° C. for biochemical analyses. Embryos examined for morphological abnormalities were derived at E11.5, and fixed in 10% neutral buffered formalin.
Analysis of NTD incidence, including differences between Genotypes, Diets, and interactions of Diet×genotype were analyzed by 2-factor ANOVA by using Tukey's honestly significant difference for post hoc analysis.

The subject of data set [2] is intestinal tumors in Apc-min mice. The data set is described as follows: Intestinal tumor number in Apc-min mice fed supplemented diets. The note with it: for intestinal tumors (number per mouse): AIN-93G diet lacking folic acid supplemented with 0.6% uridine or 0.1% deoxyuridine, FD alone 35+/-5. It counts as in vivo, mouse. An excerpt:
SHMT1 null ([…]) mice were generated as previously described (MacFarlane et al., “Cytoplasmic Serine Hydroxymethyltransferase Regulates the Metabolic Partitioning of Methylenetetrahydrofolate but is Not Essential in Mice,” J. Biol. Chem. 283(38):25846-25853 (2008), which is hereby incorporated by reference in its entirety) and backcrossed a minimum of 10 generations onto the C57BL/6J strain. Mice were genotyped using the forward primer 5′-GACACTGTTCACATCCCTC-3′ (SEQ ID NO:1) and the reverse primer 5′-CAAAACATTCGGGAGCCTC-3′ (SEQ ID NO:2). The forward primer corresponds to an intron 6 sequence located 5′ to a loxP site and exon 7 and the reverse primer corresponds to an intron 7 sequence located downstream of a 3′ loxP site (MacFarlane et al., “Cytoplasmic Serine Hydroxymethyltransferase Regulates the Metabolic Partitioning of Methylenetetrahydrofolate but is Not Essential in Mice,” J. Biol. Chem. 283(38):25846-25853 (2008), which is hereby incorporated by reference in its entirety). C57BL/6J-Apc^Min/J (Apc^min/+) mice were obtained. Genotyping of Apc^min/+ mice was performed using the following primers recommended by The Jackson Laboratory protocol: wild-type forward primer 5′-GCCATCCCTTCACGTTAG-3′ (SEQ ID NO:3), Min forward primer 5′-[…]-3′ (SEQ ID NO:4), and a common reverse primer 5′-TTCCACTTTGGCATAAGGC-3′ (SEQ ID NO:5). […]
The small intestine and colon were removed, flushed with cold PBS, opened longitudinally, and laid flat lumen side up for examination using a dissecting microscope as previously described (Chiu et al., “Sulindac Causes Rapid Regression of Preexisting Tumors in Min/+Mice Independent of Prostaglandin Biosynthesis,” Cancer Res. 57:4267-73 (1997), which is hereby incorporated by reference in its entirety). Tumors were counted according to intestinal location (small intestine or colon) and their diameter measured by a pathologist-trained investigator who was blinded to the genotype of the intestinal specimen. Tumor load is a function of tumor number and area and was calculated as the total tumor area per mouse. […]

Data set [3] deals with embryos and litters of Shmt1 dams. Put plainly: Implants, resorptions, dead embryos and crown-rump length in litters of Shmt1 dams. It is filed as in vivo, mouse. The note with it: for implantation, dead embryos occurrence, rates of resorption compared with C diet: litters from dams.
Text: as §1
Analysis of embryonic CR length, total litter resorptions and implants was analyzed by 2-factor ANOVA with Tukey's honestly significant difference for post hoc analysis, in which litter was considered as a random effect. Independent variables included maternal genotype and diet. Resorption rate was calculated as the ratio of resorptions/total implants per litter and log-transformation was applied to normalize the data. Chi-squared analyses were used to assess any deviation from expected genotype ratios based on Mendelian inheritance. Analysis of uracil concentration, Thymidine, deoxyuridine, glucose and folate were conducted by 2-factor ANOVA with Tukey honestly significant differences for post hoc analysis. Independent variables included maternal genotype and diet. All test were performed in JMP version 8.02 (SAS institute). Western blots analyses were assessed using ANOVA and Dunnett's Multiple Comparison Test. […] All statistics were performed using GraphPad Prism version 4.00 for Windows, GraphPad Software, San Diego Calif. USA.

The next data set has as its system female mice. The data set is described as follows: Gross observations in female mice weaned on the diets. It counts as in vivo, mouse.
The next data set relates to splotch mutant (Pax3^Sp). The note with it: splotch mutant / splotch homozygotes; literature (Wlodarczyk 2005; Fleming 1998; others); cited from earlier work.
The mark [4] stands for this setting: Shmt1+/+ dams, C+U diet (inferred), out of 69.
Where [5] appears, read: Shmt1+/+ female mice fed FD+U diet (0.6% uridine), out of 56.
Setting [6] is: Shmt1-/- dams fed FD+T diet (0.2% thymidine), out of 32.

`O=c1ccn([C@@H]2O[C@H](CO)[C@@H](O)[C@H]2O)c(=O)[nH]1` [uridine]: the “frequency of exencephaly in embryos” value in data set [1] (setting [4]) turned out to be 5.8%; in data set [1] (setting [5]), 5.4%; in data set [1] (Shmt1-/- dams fed FD+U diet (folate deficient + 0.6% uridine), of 44 viable embryos), 15.9%; in data set [1] (Shmt1-/- dams, C+U diet (AIN-93G + 0.6% uridine; diet inferred from next sentence), out of 50 viable embryos), 6%. For the same compound, the “number of embryos with NTDs” value in data set [1] (setting [4]) was determined as 4 NTDs; in data set [1] (Shmt1-/- dams, C+U diet (inferred), out of 50 viable embryos) it was 3 NTDs. Moreover, the “number of embryos with exencephaly” value in data set [1] (setting [5]) was found to be 3; in data set [1] (Shmt1-/- dams fed FD+U diet (0.6% uridine), of 44 viable embryos), 7. For the same compound, the “Shmt1+/+ embryos with exencephaly” value in data set [1] is recorded as “One”. The “effect on NTD frequency” value in data set [1] (uridine supplementation, independent of dietary folic acid) was “exacerbated NTD frequency”. The “intestinal tumors (number per mouse)” value in data set [2] is reported as 18+/−2. Also, the “implantation, dead embryos occurrence, rates of resorption compared with C diet” value in data set [3] is reported as “Neither implantation, dead embryos occurrence, or rates of resorption were significantly different”.
As to `Cc1cn([C@H]2C[C@H](O)[C@@H](CO)O2)c(=O)[nH]c1=O` [thymidine, reference compound], the “number of embryos with NTDs” value in data set [1] (Shmt1+/+ dams fed FD+T diet (0.2% thymidine), out of 49) was 2 NTDs. The “frequency of NTDs (exencephaly) in embryos” value in data set [1] (Shmt1+/+ dams fed FD+T diet (AIN93G lacking folic acid + 0.2% thymidine), out of 49) was 4.1%. Moreover, in data set [1] (setting [6]), the “frequency of NTDs (exencephaly) in embryos” value is recorded as 9.4% and the “number of embryos with NTDs” value is 3 NTDs. In data set [1], the “Shmt1+/+ embryos with exencephaly” value was “one”; the “prevention of NTDs by supplementation of the folate-deficient (FD) diet” value is “did not prevent NTD occurrence and not”. Further, the NTD occurrence result in data set [1] (dams fed C+T diet (AIN-93G + 0.2% thymidine)) is listed as “No NTDs were uncovered”.
As to `O=c1ccn([C@H]2C[C@H](O)[C@@H](CO)O2)c(=O)[nH]1` [deoxyuridine, 2′-Deoxyuridine], in data set [1] (Shmt1+/+ and Shmt1-/- dams fed FD+dU diet (folic acid deficient + 0.1% 2'-deoxyuridine)), the NTD occurrence result is given as “did not exhibit NTDs”. In addition, the “prevention of NTDs by supplementation of the folate-deficient (FD) diet” value in data set [1] is “prevented NTDs”. In data set [2], the “intestinal tumors (number per mouse)” value is given as 29+/−2.0. For the same compound, the “effect on tumor number” value in data set [2] (FD diet + 0.1% deoxyuridine) is recorded as “no effect on tumor number”. For the same compound, the other gross findings result with female mice (dU and dUFD groups) is “Edematous of internal organs (up to 4 mice from dU and dUFD groups together), blood in GI track and uterus, and discoloration of pancreas”. Moreover, the “lymphoid aggregates on colons compared to other groups” value with female mice (female mice weaned on C+dU and FD+dU) is “High frequency of numerous lymphoid aggregates”. Also, in data set [3] (dams fed FD+dU and C+dU diets (0.1% 2'-deoxyuridine)), the “number of dead embryos” value is “higher number of dead embryos, but the differences did not reach significance”. In addition, in data set [3], the “implantation, dead embryos occurrence, rates of resorption compared with C diet” value is “Neither implantation, dead embryos occurrence, or rates of resorption were significantly different”.
As to `Nc1nc2ncc(CNc3ccc(C(=O)N[C@@H](CCC(=O)O)C(=O)O)cc3)nc2c(=O)[nH]1` [folic acid], the “rescue / prevention of NTDs by dietary supplementation” value in the data set on splotch mutant (Pax3^Sp) was “can be rescued”.
